Assay results reported in US12649751B2 (Arcus Biosciences, Inc., priority 2022, dated 2026).
Like-named read-outs stand apart in the source and are kept apart here.

Assays:
HPK1 = HPK1 (Homo sapiens, UniProt Q92918); experiment: HPK1 Biochemical Assay (ADP-Glo luminescence; low ATP 10 μM or high ATP 200 μM)
[1] = system: p-SLP-76 (Ser376) in Jurkat cells; experiment: pSLP76 Cellular Assay (AlphaLISA SureFire Ultra p-SLP-76 (Ser376), anti-CD3 activated Jurkat cells); format: cell-based; settings: Homo sapiens, read-out: Cellular Potency
Outline: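 Read-out is AlphaLISA p-SLP-76 (Ser376) signal at 570 nm in Jurkat lysates, with IC50 fitted by 4-parameter logistic. Cells were starved overnight, exposed 1 h at 37 °C to 22 twofold compound dilutions in HBSS, then activated 45 min with anti-CD3 (0.025 mg/ml stock added).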

[2] = 2 nM HPK1, 10 μM ATP, read-out: Biochemical Potency (low ATP)
[3] = Jurkat cells, anti-CD3 stimulation, pSLP76
[4] = HPK1 ADP-Glo assay, high ATP (200 μM ATP, 5 nM HPK1), read-out: Biochemical Potency (high ATP)
[5] = pSLP76 (Ser376) AlphaLISA, anti-CD3 activated Jurkat cells

HPK1, sequence (Q92918 whole entry, species assumed): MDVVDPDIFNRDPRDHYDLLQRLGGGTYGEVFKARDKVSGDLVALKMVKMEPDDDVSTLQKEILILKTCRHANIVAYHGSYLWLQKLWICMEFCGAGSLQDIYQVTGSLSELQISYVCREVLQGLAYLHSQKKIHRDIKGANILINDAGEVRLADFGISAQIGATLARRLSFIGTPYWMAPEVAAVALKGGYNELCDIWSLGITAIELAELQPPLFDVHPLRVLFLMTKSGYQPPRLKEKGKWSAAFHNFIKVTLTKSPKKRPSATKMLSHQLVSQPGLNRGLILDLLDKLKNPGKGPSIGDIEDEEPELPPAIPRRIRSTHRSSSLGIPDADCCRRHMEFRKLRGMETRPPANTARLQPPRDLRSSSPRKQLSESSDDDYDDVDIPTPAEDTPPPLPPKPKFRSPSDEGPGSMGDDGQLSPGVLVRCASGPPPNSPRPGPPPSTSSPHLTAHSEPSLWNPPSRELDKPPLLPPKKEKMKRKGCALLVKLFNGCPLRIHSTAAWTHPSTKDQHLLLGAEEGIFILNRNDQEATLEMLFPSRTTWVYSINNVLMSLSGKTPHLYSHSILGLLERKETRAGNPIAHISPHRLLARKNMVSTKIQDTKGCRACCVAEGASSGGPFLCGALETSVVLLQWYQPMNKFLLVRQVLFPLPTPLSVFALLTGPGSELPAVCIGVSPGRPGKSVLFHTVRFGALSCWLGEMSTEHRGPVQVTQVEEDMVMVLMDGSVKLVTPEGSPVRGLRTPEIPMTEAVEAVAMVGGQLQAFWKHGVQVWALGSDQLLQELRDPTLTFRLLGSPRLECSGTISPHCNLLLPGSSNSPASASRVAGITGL

Structure (SMILES)	IC50 (HPK1; [2]) [nM]	IC50 [1, 3] [nM]	IC50 [1, 5] [nM]	also measured
Cc1cccnc1-c1nc2cc(Nc3ccc(C)c(N4C[C@H](N)C[C@H]4CO)n3)ncc2s1 [Example 69, [(2S,4R)-4-Amino-1-(3-methyl-6-{[2-(3-methylpyridin-2-yl)-[1,3]thiazolo[5,4-c]pyridin-6-yl]amino}pyridin-2-yl)pyrrolidin-2-yl]methanol]	< 100	> 5000		
Cc1ccnn1-c1nc2cc(Nc3ccc(C4CCOC4)c(CN4CCCC4)n3)ncc2s1 (stereo not drawn) [Example 256, N-[2-(5-Methyl-1H-pyrazol-1-yl)-[1,3]thiazolo[5,4-c]pyridin-6-yl]-5-(oxolan-3-yl)-6-[(pyrrolidin-1-yl)methyl]pyridin-2-amine]	< 100	< 100		
Cc1ccnn1-c1nc2cc(Nc3ccc(N4CCOCC4)c(C(C)(C)N)n3)ncc2s1 [Example 270, 6-(2-Aminopropan-2-yl)-N-[2-(5-methyl-1H-pyrazol-1-yl)-[1,3]thiazolo[5,4-c]pyridin-6-yl]-5-(morpholin-4-yl)pyridin-2-amine]	< 100	100 to 1000		
Cc1cc(NCc2nccn2C)nc(Nc2cc3nc(-c4ccnc(C)c4)sc3cn2)c1 [Example 76, 4-Methyl-N2-[(1-methyl-1H-imidazol-2-yl)methyl]-N6-[2-(2-methylpyridin-4-yl)-[1,3]thiazolo[5,4-c]pyridin-6-yl]pyridine-2,6-diamine]	< 100	1000 to 5000		
c1cnn(-c2nc3cc(Nc4ccc(C5CCOCC5)c(CN5CCCC5)n4)ncc3s2)c1 [Example 210, 5-(Oxan-4-yl)-N-[2-(1H-pyrazol-1-yl)-[1,3]thiazolo[5,4-c]pyridin-6-yl]-6-[(pyrrolidin-1-yl)methyl]pyridin-2-amine]	< 100	100 to 1000		
CC(C)c1cccnc1-c1nc2cc(Nc3cccc(N4C[C@@H]5C[C@H]4CN5C)n3)ncc2s1 [Example 93, 6-[(1S,4S)-5-Methyl-2,5-diazabicyclo[2.2.1]heptan-2-yl]-N-{2-[3-(propan-2-yl)pyridin-2-yl]-[1,3]thiazolo[5,4-c]pyridin-6-yl}pyridin-2-amine]	< 100	100 to 1000		
Cc1cccnc1-c1nc2cc(Nc3cc(C4CCOCC4)nc(N4C[C@@H]5C[C@H]4CN5C)n3)ncc2s1 [Example 249, 2-[(1S,4S)-5-Methyl-2,5-diazabicyclo[2.2.1]heptan-2-yl]-N-[2-(3-methylpyridin-2-yl)-[1,3]thiazolo[5,4-c]pyridin-6-yl]-6-(oxan-4-yl)pyrimidin-4-amine]	< 100	100 to 1000		IC50 (HPK1; 5 nM HPK1, 200 μM ATP, read-out: Biochemical Potency (high ATP)): < 100 nM
Cc1cc(Nc2cc3nc(-c4cccc(C(=O)N(C)C)c4)sc3cn2)nc(N2C[C@@H]3C[C@H]2CN3CCOC(C)C)n1 [Example 492]			100 to 1000	IC50 (HPK1; [4]): < 100 nM

Further lines, with some results ahead:

IC50 (HPK1; [2]) [nM]	IC50 [1, 3] [nM]	IC50 [1, 5] [nM]	Structure (SMILES)	also measured
< 100	1000 to 5000		Cc1cccnc1-c1nc2cc(Nc3cccc(N4C[C@@H](N)C[C@H]4CO)n3)ncc2s1 [Example 66, [(2S,4S)-4-Amino-1-(6-{[2-(3-methylpyridin-2-yl)-[1,3]thiazolo[5,4-c]pyridin-6-yl]amino}pyridin-2-yl)pyrrolidin-2-yl]methanol]	
< 100	< 100		Cc1ccnn1-c1nc2cc(Nc3ccc(N4CCOCC4)c(CN4CCCC4)n3)ncc2s1 [Example 194, N-[2-(5-Methyl-1H-pyrazol-1-yl)-[1,3]thiazolo[5,4-c]pyridin-6-yl]-5-(morpholin-4-yl)-6-[(pyrrolidin-1-yl)methyl]pyridin-2-amine]	
		< 100	CCn1cc(-c2nc3cc(Nc4cc(C)nc(N5C[C@@H]6C[C@H]5CN6CCO)n4)ncc3s2)cn1 [Example 358]	IC50 (HPK1; [4]): < 100 nM
		< 100	COCc1c(-c2nc3cc(Nc4cc(C)nc(N5C[C@@H]6C[C@H]5CN6C)n4)ncc3s2)cnn1C [Example 351]	IC50 (HPK1; [4]): < 100 nM
		100 to 1000	Cc1cccnc1-c1nc2cc(Nc3ccc4c(n3)CN(C)CC4)ncc2s1 [Example 327]	IC50 (HPK1; HPK1 ADP-Glo assay, low ATP (10 μM ATP, 2 nM HPK1), read-out: Biochemical Potency (low ATP)): < 100 nM
